Consider 14 molecules from patent US20100285145A1, “GPR 119 MODULATORS” (PFIZER INC, priority 2009, published 2010).

Values joined by “and” are separate entries in the source; they are usually repeats but may differ in a detail not shown here. Equal values may be shown once.

Assay [1] deals with T1, human GPR119 (Homo sapiens, UniProt Q8TDV5).
T1 sequence (Q8TDV5 1-335): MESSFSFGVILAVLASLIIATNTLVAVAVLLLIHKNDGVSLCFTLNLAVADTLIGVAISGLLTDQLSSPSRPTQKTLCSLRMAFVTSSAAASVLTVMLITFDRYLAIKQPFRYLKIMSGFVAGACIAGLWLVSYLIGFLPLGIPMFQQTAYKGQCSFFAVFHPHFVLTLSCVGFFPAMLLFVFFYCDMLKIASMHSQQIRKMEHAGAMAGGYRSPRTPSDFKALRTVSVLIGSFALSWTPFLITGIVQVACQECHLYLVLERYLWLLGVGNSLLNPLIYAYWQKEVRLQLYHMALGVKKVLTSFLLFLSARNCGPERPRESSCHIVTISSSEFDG
Kind of assay: β-Arrestin PathHunter assay (U2OS hGPR119 β-arrestin cells). Format: cell-based. Particulars: for EC50: read-out: Human B-arrestin Functional EC50; for Emax: U2OS, read-out: Intrinsic Activity (Human B-arrestin). As for the experimental part:
GPR119 agonist activity was also determined with a cell-based assay utilizing DiscoverX PathHunter β-arrestin cell assay technology and their U2OS hGPR119 β-arrestin cell line (DiscoverX Cat # 93-0356C3). In this assay, agonist activation is determined by measuring agonist-induced interaction of β-arrestin with activated GPR119. A small, 42 amino acid enzyme fragment, called ProLink was appended to the C-terminus of GPR119. Arrestin was fused to the larger enzyme fragment, termed EA (Enzyme Acceptor). Activation of GPR119 stimulates binding of arrestin and forces the complementation of the two enzyme fragments, resulting in formation of a functional β-galactosidase enzyme capable of hydrolyzing substrate and generating a chemiluminescent signal.
Specifically, U2OS hGPR119 β-arrestin cells (DiscoverX 1×10^7/mL) are removed from cryopreservation and diluted in growth medium (Minimum essential medium (MEM; Gibco Cat # 11095-080), 10% heat inactivated fetal bovine serum (HIFBS; Sigma Cat # F4135-100), […] sodium pyruvate (Sigma Cat # S8636), 500 microg/mL G418 (Sigma Cat # G8168) and 250 microg/mL Hygromycin B (Invitrogen Cat # 10687-010). The cell concentration was adjusted to 1.66×10^5 cells/mL and 30 mLs of this suspension was added to a T-175 flask and incubated at 37 degrees Celsius in a humidified environment in 5% carbon dioxide. After 24 hours, the cells were removed from the T-175 flask with enzyme-free cell dissociation buffer (Gibco cat #13151-014), centrifuged at 800×g and then re-suspended in plating medium (Opti-MEM I (Invitrogen/BRL Cat # 31985-070) and 2% charcoal dextran treated fetal bovine serum (CD serum; HyClone Cat # SH30068.03).
The cell concentration was adjusted to 2.5×10^5 cells/mL with plating medium and 20 microliters of this cell suspension (5000 cells) was added to each well of a white Greiner 384-well low volume assay plate (VWR cat #82051-458) and the plates were incubated at 37 degrees Celsius in a humidified environment in 5% carbon dioxide.
After 16 hours (overnight) the assay plates were removed from the incubator and varying concentrations of each compound to be tested (diluted in assay buffer (1×HBSS+CaCl2+MgCl2 (Gibco Cat # 14025-092), 20 mM HEPES pH 7.0 (Gibco Cat # 15630-080) and 0.1% BSA (Sigma Cat # A9576)) were added to the assay plate wells in a volume of 5 microliters (final DMSO concentration was 0.5%). After a 90 minute incubation at 37 degrees Celsius in a humidified environment in 5% carbon dioxide, 12 microliters of Galacton Star β-galactosidase substrate (PathHunter Detection Kit (DiscoveRx Cat # 93-0001); prepared as described in the manufacturers assay protocol) was added to each well of the assay plate. The plates were incubated at room temperature and after 60 minutes, changes in the luminescence were read with an Envision 2104 multilabel plate reader at 0.1 seconds per well. EC50 determinations were made from an agonist-response curves analyzed with a curve fitting program using a 4-parameter logistic dose response equation.

Assay [2] concerns the target T1, human GPR119. Kind of assay: cAMP HTRF functional assay (hGPR119 HEK-CRE beta-lactamase cells). In kind it is cell-based. More on the design: host or cells: HEK293-CRE beta-lactamase. The settings on record: for Emax: read-out: Intrinsic Activity (Human cAMP). In a few lines: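 hGPR119 HEK-CRE cells (5000/well), cultured overnight, then treated 30 min at room temperature with compound plus 400 microM IBMX (0.58% DMSO). cAMP measured by competitive HTRF immunoassay after 60 min lysis/detection, converted to nM via standard curve; EC50 from 4-parameter logistic fit.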

The mark [3] stands for this setting: U2OS hGPR119 β-arrestin cells, 90 min, each line a separate determination.
[4] abbreviates: percent of maximal activity relative to standard GPR119 agonist at 10 micromolar.
[5] abbreviates: HTRF cAMP, 30 min, 400 microM IBMX, each line a separate determination.
The mark [6] stands for this setting: marked **: curve was extrapolated to 100%.
[7] abbreviates: curve was extrapolated to 100% to calculate an EC50.

Regarding `CC(C)(C)OC(=O)N1CCC(Oc2cc(N3CCc4cc(S(C)(=O)=O)ccc43)ncn2)C(F)C1` (racemic) [Example 15, tert-Butyl 3-fluoro-4-({6-[5-(methylsulfonyl)-2,3-dihydro-1H-indol-1-yl]pyrimidin-4-yl}oxy)piperidine-1-carboxylate], the EC50 – broadly, the midpoint of the concentration-response curve – on human GPR119 [1] (setting [3]) is 0.999 nM; at human GPR119 [2] (setting [5]), 10.3 nM and 12.9 nM and 49.5 nM. Besides, the results for the Emax at human GPR119 [1] (setting [4]) and at human GPR119 [2] (setting [4]) were 77.1% and 92.5%, respectively. Moreover, the “Intrinsic Activity (Human cAMP)” value at human GPR119 [2] (setting [4]) is 102% and 93.5%.

In the case of `Cc1c(O[C@H]2CCN(C(=O)OC(C)(C)C)C[C@H]2F)ncnc1N1CCc2ncccc21` (racemic) [Example 16, tert-Butyl (3R,4S)-4-{[6-(2,3-dihydro-1H-pyrrolo[3,2-b]pyridin-1-yl)-5-methylpyrimidin-4-yl]oxy}-3-fluoropiperidine-1-carboxylate (racemic)], the EC50 is 2.78 nM on human GPR119 [1] (setting [3]); 6.37 nM and 15 nM and 9.29 nM at human GPR119 [2] (setting [5]). Also, the results for the Emax at human GPR119 [1] (setting [4]) and at human GPR119 [2] (setting [4]) were 48.6% and 24.8%, respectively. Further, the “Intrinsic Activity (Human cAMP)” value at human GPR119 [2] (setting [4]) is 21.8% and 27.7%.

As for `CC(C)OC(=O)N1C[C@H]2COC[C@@H](C1)[C@H]2Oc1cc(N2CCc3cc(S(C)(=O)=O)ccc32)ncn1` [Example 1, Isopropyl 9-anti-({6-[5-(methylsulfonyl)-2,3-dihydro-1H-indol-1-yl]pyrimidin-4-yl}oxy)-3-oxa-7-azabicyclo[3.3.1]nonane-7-carboxylate], the concentration for a half-maximal effect (EC50) at human GPR119 [2] (setting [5]) is 339 nM and 567 nM and 1280 nM. On human GPR119 [2] (setting [4]), the “Intrinsic Activity (Human cAMP)” value is 94% and 87.9%; the Emax is 96.5%.

In the case of `CC(C)OC(=O)N1CCC(Oc2cc(N3CCc4cc(S(C)(=O)=O)ccc43)ncn2)CC1` [Example 3, Isopropyl 4-({6-[5-(methylsulfonyl)-2,3-dihydro-1H-indol-1-yl]pyrimidin-4-yl}oxy)piperidine-1-carboxylate], the EC50 on human GPR119 [1] (setting [3]) is 22.1 nM and 14.9 nM and 72.2 nM; on human GPR119 [2] (setting [5]), 28.8 nM and 126 nM and 225 nM and 199 nM and 49.4 nM and 152 nM and 63.7 nM and 202 nM and 201 nM and 104 nM. Moreover, the “Intrinsic Activity (Human B-arrestin)” value on human GPR119 [1] (setting [4]) is 75.8% and 62.2% and 87.9%. The “Intrinsic Activity (Human cAMP)” value on human GPR119 [2] (setting [4]) amounted to 107%.

Turning to `CC(C)OC(=O)N1CCC(Oc2ncnc(N3CCc4cc(S(C)(=O)=O)ccc43)c2C#N)CC1` [Example 6, Isopropyl 4-({5-cyano-6-[5-(methylsulfonyl)-2,3-dihydro-1H-indol-1-yl]pyrimidin-4-yl}oxy)piperidine-1-carboxylate], the EC50 on human GPR119 [1] (setting [3]) was 4.76 nM; at human GPR119 [2] (setting [5]), 84.5 nM and 116 nM. Also, the results for the Emax at human GPR119 [1] (setting [4]) and on human GPR119 [2] (setting [4]) were 70% and 95.3%, respectively. Besides, the “Intrinsic Activity (Human cAMP)” value at human GPR119 [2] (setting [4]) was found to be 94.2%.

`Cc1c(OC2CCN(C(=O)OC(C)C)CC2)ncnc1N1CCc2cc(S(C)(=O)=O)ccc21` [Example 8, Isopropyl 4-({5-methyl-6-[5-(methylsulfonyl)-2,3-dihydro-1H-indol-1-yl]pyrimidin-4-yl}oxy)piperidine-1-carboxylate] had an EC50 on human GPR119 [2] (setting [5]) of 43.9 nM. Also, on human GPR119 [2] (setting [4]), the Emax was 53%.

At human GPR119 [2] (setting [5]), `CC(C)OC(=O)N1CCC(Oc2cc(N3CCc4cc(C(=O)N(C)C)ccc43)ncn2)CC1` [Example 9, 4-[6-(5-Dimethylcarbamoyl-2,3-dihydroindol-1-yl)-pyrimidin-4-yloxy]-piperidine-1-carboxylic acid isopropyl ester] yielded a 50% effective concentration (EC50) of 70.9 nM. The Emax on human GPR119 [2] (setting [4]) was found to be 97.5%.

`CC(C)OC(=O)N1CCC(Oc2cc(N3CCc4cc(C#N)ccc43)ncn2)CC1` [Example 10, Isopropyl 4-{[6-(5-cyano-2,3-dihydro-1H-indol-1-yl)pyrimidin-4-yl]oxy}piperidine-1-carboxylate]: the EC50 at human GPR119 [2] (setting [5]) was 13.8 nM and 32.9 nM. Moreover, at human GPR119 [2] (setting [4]), the “Intrinsic Activity (Human cAMP)” value was 105% and the Emax was found to be 104%.

Molecule `CC(C)OC(=O)N1CCC(Oc2cc(N3CCc4cc(S(=O)(=O)CCO)ccc43)ncn2)CC1` [Example 11, Isopropyl 4-[(6-{5-[(2-hydroxyethyl)sulfonyl]-2,3-dihydro-1H-indol-1-yl}pyrimidin-4-yl)oxy]piperidine-1-carboxylate] showed an EC50 at human GPR119 [2] (setting [5]) of 99.4 nM. Besides, the Emax on human GPR119 [2] (setting [4]) turned out to be 90.3%.

For the molecule `CC(C)OC(=O)N1CCC(Oc2cc(N3CCc4ncccc43)ncn2)CC1` [Example 12, Isopropyl 4-{[6-(2,3-dihydro-1H-pyrrolo[3,2-b]pyridin-1-yl)pyrimidin-4-yl]oxy}piperidine-1-carboxylate], the Emax on human GPR119 [1] (setting [6]) is 100%; on human GPR119 [2] (setting [6]), 100%; at human GPR119 [2] (setting [4]), 56%. Besides, the EC50 on human GPR119 [1] (setting [7]) is 2570 nM; on human GPR119 [2] (setting [5]), 784 nM and 1140 nM and 1180 nM and 331 nM and 792 nM; at human GPR119 [2] (setting [7]) it was 8150 nM and 9620 nM and 8350 nM and 9480 nM. Besides, the “Intrinsic Activity (Human cAMP)” value at human GPR119 [2] (setting [6]) is 100** %; on human GPR119 [2] (setting [4]), 56.5% (2×) and 53.6% and 44%.

Consider `Cc1c(OC2CCN(C(=O)OC(C)C)CC2)ncnc1N1CCc2ncccc21` [Example 13, Isopropyl 4-{[6-(2,3-dihydro-1H-pyrrolo[3,2-b]pyridin-1-yl)-5-methylpyrimidin-4-yl]oxy}-piperidine-1-carboxylate], for which the EC50 at human GPR119 [1] (setting [3]) was 89.4 nM; at human GPR119 [2] (setting [5]) it was 24.1 nM and 39.7 nM and 76.3 nM and 30.2 nM. The results for the Emax at human GPR119 [1] (setting [4]) and at human GPR119 [2] (setting [4]) were 29.1% and 20.3%, respectively. In addition, the “Intrinsic Activity (Human cAMP)” value on human GPR119 [2] (setting [4]) is 19.5% and 29.2% and 24.4%.

Turning to `Cc1c(O[C@H]2CCN(C(=O)OC3(C)CC3)C[C@H]2F)ncnc1N1CCc2ncccc21` [Example 17, 1-Methylcyclopropyl (3R,4S)-4-{[6-(2,3-dihydro-1H-pyrrolo[3,2-b]pyridin-1-yl)-5-methylpyrimidin-4-yl]oxy}-3-fluoropiperidine-1-carboxylate], the concentration for a half-maximal effect (EC50) at human GPR119 [1] (setting [3]) is 2.13 nM and 5.86 nM and 6.62 nM and 5.05 nM and 4.7 nM; at human GPR119 [2] (setting [5]), 19 nM and 28.5 nM and 13.7 nM and 14.8 nM and 16.9 nM and 19.4 nM. Also, the “Intrinsic Activity (Human B-arrestin)” value on human GPR119 [1] (setting [4]) was 68.9% and 54.3% and 59.2% and 52.8% and 76.9%. In addition, the “Intrinsic Activity (Human cAMP)” value at human GPR119 [2] (setting [4]) was 69.6% and 48.7% and 53.8% and 63.9% and 53.1% and 48.5%.

In the case of `Cc1c(O[C@H]2[C@@H]3COC[C@H]2CN(C(=O)OC(C)C)C3)ncnc1N1CCc2ncccc21` [Example 22, Isopropyl (9-anti)-9-{[6-(2,3-dihydro-1H-pyrrolo[3,2-b]pyridin-1-yl)-5-methylpyrimidin-4-yl]oxy}-3-oxa-7-azabicyclo[3.3.1]nonane-7-carboxylate], the concentration giving a half-maximal response (EC50) at human GPR119 [1] (setting [3]) is 40.2 nM and 33.1 nM and 74.6 nM and 41.8 nM. Moreover, on human GPR119 [1] (setting [4]), the Emax amounted to 68.8%; the “Intrinsic Activity (Human B-arrestin)” value is 70.5% and 71.2% and 60.3%. Also, the EC50 at human GPR119 [2] (setting [5]) is 116 nM and 169 nM and 137 nM and 269 nM. Further, the “Intrinsic Activity (Human cAMP)” value on human GPR119 [2] (setting [4]) was 80.4% and 66.6% and 74.1% and 55.6%.

Turning to `Cc1c(O[C@@H]2[C@@H]3COC[C@H]2CN(C(=O)OC(C)C)C3)ncnc1N1CCc2cc(S(C)(=O)=O)ccc21` [Example 23, Isopropyl (9-syn)-9-({5-methyl-6-[5-(methylsulfonyl)-2,3-dihydro-1H-indol-1-yl]pyrimidin-4-yl}oxy)-3-oxa-7-azabicyclo[3.3.1]nonane-7-carboxylate], the values for the Emax at human GPR119 [1] (setting [4]) and at human GPR119 [2] (setting [4]) were 51.6% and 26.3%, respectively. Also, at human GPR119 [2] (setting [4]), the “Intrinsic Activity (Human cAMP)” value is 27.9% and 29.5% and 16.7%.
